{"source": "paper PMC8707548", "about": "“Restoring Tumour Selectivity of the Bioreductive Prodrug PR-104 by Developing an Analogue Resistant to Aerobic Metabolism by Human Aldo-Keto Reductase 1C3” (Pharmaceuticals, 2021)", "target": "T1, recombinant AKR1C3 (human aldo-keto reductase 1C3) (Homo sapiens, UniProt P42330)", "T1 construct": "recombinant enzyme", "T1 sequence (P42330 1-323)": "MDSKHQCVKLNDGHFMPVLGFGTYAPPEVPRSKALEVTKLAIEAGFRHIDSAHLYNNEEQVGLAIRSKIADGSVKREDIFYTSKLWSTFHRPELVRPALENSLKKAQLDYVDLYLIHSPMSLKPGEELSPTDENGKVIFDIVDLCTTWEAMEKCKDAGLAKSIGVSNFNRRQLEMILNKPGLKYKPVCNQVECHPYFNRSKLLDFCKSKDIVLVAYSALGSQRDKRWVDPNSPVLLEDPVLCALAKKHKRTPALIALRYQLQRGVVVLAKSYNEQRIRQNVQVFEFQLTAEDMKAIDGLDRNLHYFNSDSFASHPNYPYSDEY", "experiment": "absorbance at […] nm, Michaelis-Menten fit", "type": "biochemical", "settings": "0.25 mM NAD(P)H, 10 mM Tris-Cl pH 7.0, 4% DMSO"}
{"smiles": "CS(=O)(=O)OCCN(CCBr)c1c(C(=O)NCCO)cc([N+](=O)[O-])cc1[N+](=O)[O-]", "note": "[PR-104A]", "values": [{"measurement": "KM", "value": "kinetic parameters calculated for each (D)NBM using the following extinction coefficients: PR-104A"}]}
